“Also recorded” adds a separate entry of the source.
Legend:
[1] = system: RDM4 line; experiment: Proliferation test (UptiBlue) on RDM4 line; type: cell-based, mouse; conditions: 72 hours
Description: The products are tested on different cell lines. The cells used are RDM4 from a murine T lymphoma and a MOLT-4 line originating from an acute lymphoblastic leukemia. These cancer lines both express the p53 protein, unlike the HL-60 cells from a human promyelocytary leukemia where, following deletion of its gene, p53 is absent.
All of these cells are cultivated in RPMI 1640-Glutamax, supplemented by 10% calf foetal serum heat inactivated at 56° C. for 30 minutes, 1 mM sodium pyruvate, 1 mM non-essential amino acids and 50 μg/mL gentamycine (Life Technologies, Cergy Pontoise, France). The cultures are kept in an incubator at 37° C. with a moisture saturated atmosphere, with 5% CO2.
This test uses the UptiBlue reagent (Interchim, Montluçon, France), metabolised by the living cells. The cells are incubated on plates with 96 wells with 10^4 cells/well (200 μL) with the product and cultivated for 72 hours. Then, 20 μL UptiBlue are added to each well. After 3 hours incubation, the fluorescence of the samples contained in the plates is measured at 590 nm (excitation at 560 nm), using a Fluorolite 1000 microplate reader (Dynex technologies, Issy-Les-Moulineaux, France).
The potential anti-cancers are first of all selected on the RDM4 line. The effect of the different organo-ruthenium compounds upon the cell viability is firstly determined by a proliferation test as a function of the product concentration. The activity of the compounds derived from Ru is compared to that of cisplatinum. The exposure of the RDM4 cells to these derivatives is translated by a dose-dependent reduction in their proliferation. Therefore, the effect is dependent upon the organic complex which surrounds the Ru nucleus. The inhibition concentration of the growth of 50% of the cells (IC50) is determined for each of the products. […] The ruthenium derivatives showing an excessive IC50 (>50 μM) were eliminated from the biological study.

[2] = system: TK6 and NH32 cells; experiment: Apoptosis by marking with Annexin-V on TK6 and NH32 cells; type: cell-based, human; conditions: 1.5 μM
Description: The toxicity of the organoruthenium complex on the TK6 and NH32 lymphoblastoid cells is measured with Annexin-V—a specific marker of precocious apoptosis. This marking is implemented on cells treated with derivative 11 at 1.5 μM after 0 hrs, 24 hrs, 48 hrs, 72 hrs and 96 hrs. […] Beyond 72 hrs, the apoptosis reaches the maximum limit of 90% and forms a plateau. In the control cells, the apoptosis rate remains less than 10% for the whole of the experiment. The increase over time of the externalisation of the anionic phospholipids is similar in the two cell lines, but the TK6 cells enter into apoptosis with a delay of a dozen hours on their p53-deficient variants. The NH32 line reaches the limit formed by the 90% plateau earlier than the TK6 cells. The p53 protein seems to slow down activation of the precocious signs of apoptosis induced by the Ru complexes.

[3] = system: U-87 cells (a human glioblastoma); experiment: In vivo test, U-87 cells grafted onto nude/nude SWISS mice; conditions: 18.5 mg/Kg intraperitoneally per injection, accumulated dose 185 mg/Kg
Description: The animals are manipulated under a laminar flow hood. Ten nude/nude (athymic) eleven week old SWISS mice were grafted subcutaneously with U-87 cells (a human glioblastoma) on the left thigh. After 7 days, the tumours become apparent and treatment commences. The animals are separated into two groups of five, 5 mice are thus treated with D-PBS (control mice) and the 5 others with RDC-11 (treated mice).
For the treated mice, 2 mg of RDC-11 placed in solution in 4 mL hot D-PBS for each injection. 0.5 mL of this solution cooled down to ambient temperature is administered intraperitoneally to each mouse. For the control mice, 0.5 mL D-PBS at ambient temperature is administered in the same way.
The dose of RDC-11 injected is 18.5 mg/Kg mouse. The accumulated dose is therefore 185 mg/Kg.
The development of the apparent tumours was followed by measuring them with calipers, by weighing the mice and by scanning one mouse from each batch with a CT-scan after injecting a contrast product (Fenestra VC). The mice were individualised by a mark on the ear.
The volume of the apparent tumours was calculated according to the formula:
V=(4/3)*π*(L/2)*(I/2)^2 where L is the length and I the width measured.

[4] = system: 2008/CMV and 2008/ATP7B cells; experiment: MTT test on 2008/CMV and 2008/ATP7B cells; type: cell-based; conditions: 48 hrs
Description: FIG. 6: The 2008/CMV and 2008/ATP7B cells (contributed by Dr. Howell) were cultivated in plates with 96 wells in DMEM medium with 10% calf serum. At 30% confluence, the cells were treated for 48 hrs with cisplatinum or the various compounds derived from ruthenium in the concentrations indicated (1, 5, 15, 50 μM). The quantity of cells present in the wells was evaluated by an MTT (MTT, Sigma) test. The results obtained were related to the values of the control condition (100% viability). The graphs show an average of 8 points with the typical spacings over one experiment representative of 3 carried out. The thick black line indicates the IC50 for each graph.
One of these mechanisms is the overexpression of the copper export pump (ATP7B) which expels cisplatinum from the cell. It has been shown that this molecule is overexpressed in human tumours and that cell lines which overexpress this molecule are more resistant to cisplatinum and carboplatinum than control lines.
Two cell lines derived from 2008 cells (Katano, Safaei et al. 2003) were studied. One overexpresses the ATP7B pump, and the other only contains the control vector. The cytostatic activity of the cisplatinum and the CDR was tested in these two lines using the MTT test.

[5] = system: A172 cells; experiment: Western blot of p53, p73, p21 and Bax in A172 cells; type: cell-based, human
Description: FIG. 3: Detection of p53 and p73 in A172 cells treated with CDR. The A172 cells were treated with the concentrations indicated (2, 5 or 10 μM) with the various compounds and for the periods of time indicated (24 hrs or 6 hrs). The proteins were extracted with a lysis buffer and were separated on 10% SDS-Page gel. After being transferred onto nitrocellulose, the p53 and p73 proteins were detected by Western blot using anti-p53 (pAb1801) and anti-p73 (1/200, Ab2, Oncogene) antibody.
FIG. 4: Detection of p21 and Bax in A172 cells treated with CDR. The A172 cells were treated with the various compounds (10 μM) for 24 hrs. The proteins were extracted with a lysis buffer and were separated on 10% SDS-Page gel. After being transferred onto nitrocellulose, the p21 and Bax proteins were detected by Western blot using anti-p21 (1/200, Oncogene) and anti-Bax (1/2000, Santacruz) antibody.
For the purpose of determining the molecular mechanisms used by the ruthenium derivatives and comparing them with those induced by cisplatinum, the expression of p53, p73 p21 and bax in the A172 and HCT116 lines was analysed.

Compound | IC50 [1] [µM] | externalisation of the phosphatidylserines (Annexin-V) ([2]; 48 hrs) | externalisation of the phosphatidylserines (Annexin-V) ([2]; 72 hrs of continuous treatment) [%] | toxicity in grafted mice [3] | weight and volume of the tumours / tumoral growth ([3]; listed as RDC-11) | sensitivity of the line expressing ATP7B relative to the control line (MTT) [4] | expression of p21 and Bax ([5]; 10 μM, 24 hours treatment) | p53 proteic levels ([5]; 6 hrs treatment) | p53 proteic levels ([5]; 24 hrs treatment)
[Ru(C6H4-2-C5H4N)(phen)(NCMe)2]PF6 [Compound 11] | 11 | exceeds 50% | 90 | without any toxicity | less in relation to the controls; also recorded: changes the nature of tumoral growth |  |  |  | 
N.N.[Cl][Pt][Cl] [Cisplatinum, reference compound] |  |  |  |  |  | significantly less sensitive | induces the expression of p21 and Bax | induce p53 | induces the p53 proteic levels

— US8193175B2, “Ruthenium complexes for treating cancers” (Universite de Strasbourg, priority 2004, dated 2012)
